{"source": "paper PMC12429151", "about": "(International Journal of Molecular Sciences, 2025)", "key": {"A549-xenografted tumors": {"system": "A549-xenografted tumors", "experiment": "A549 xenograft nude mouse model", "conditions": "cisplatin 5 mg/kg intravenous", "experimental": "The body weights of mice and their tumor sizes were measured twice a week. Cisplatin was used as internal control.\nThe four-week-old female Balb/c nu/nu mice were bought from Orient Bio (Sungnam, Republic of Korea) and maintained for two weeks at 25 ± 2 °C in 50 ± 5% relative humidity with 12 h dark/light cycles. Then, 5 × 10^6 A546 human lung cancer cells mixed with Matrigel were injected subcutaneously into the right dorsal area. […] The body weights and tumor sizes of the mice were measured twice a week for five weeks. […] The tumor volume in each mouse was determined using the following formula: tumor volume (mm^3) = length × width^2 × 0.5."}, "Caco-2 cells": {"system": "Caco-2 cells", "experiment": "MTT cell viability assay", "conditions": "Caco-2, 24 h treatment, absorbance 530 nm", "procedure": "(§1) Then, the cells were further incubated for 4 h in the dark after adding MTT reagent. After incubation, formed formazan crystal was dissolved. The absorbance of the solubilized formazan was measured at 530 nm to determine cell viability of each AMP.\n(§2) A549 human lung cancer cells, MDA-MB-231 triple-negative human breast cancer cells, HT-29 human colorectal adenocarcinoma, Panc-1 human pancreatic cancer cell line, and Caco2 human epithelial cell line were purchased from the Korean Cell Line Bank (Seoul, Republic of Korea). HaCaT human keratinocytes were gifted by Professor Su-Kyung Kim (Department of Pharmacology, Keimyung University School of Medicine). The cells were routinely grown in Dulbecco’s Modified Eagle Medium supplemented with 10% fetal bovine serum and 1% antimycotic/antibiotic solution at 37 °C in an atmosphere containing 5% CO2.\n(§3) 1 × 10^4 cells were seeded into each well in a 96-well plate and attached for 24 h at 37 °C. […] The medium was removed, and the cells were incubated for 4 h in the dark after adding 50 μL of MTT reagent (Sigma-Aldrich; Merck KGaA, Darmstadt, Germany) in an each well."}, "HaCaT cells": {"system": "HaCaT cells", "experiment": "MTT cell viability assay", "conditions": "24 h treatment, absorbance 530 nm", "procedure": "as §1, §2, §3"}, "cancer and normal cells": {"system": "cancer and normal cells", "experiment": "AV/PI flow cytometric analysis, positive control", "format": "cell-based, human", "conditions": "24 h, AV/PI staining", "procedure": "5 × 10^5/well cells were plated into 6-well plates and incubated at 37 °C with 5% CO2 for 24 h to allow adhesion. […] The conditioned medium was collected into a 15 mL conical tube to retrieve the floating cells, while adherent cells were detached using trypsin. The floating cells in the collected medium were combined with the detached adherent cells and centrifuged for 2 min at 3000 rpm at 4 °C to collect the cells. The cell pellet was resuspended using 1x binding buffer containing AV and PI and incubated for 30 min at 37 °C. The cells were analyzed using a CytoFLEX Flow Cytometer (Beckman Coulter, Brea, CA, USA)."}, "[1]": {"system": "human red blood cells (RBCs)", "experiment": "Hemolysis assay", "format": "cell-based", "conditions": "human RBCs in PBS, 37 °C, 1 h, absorbance 405 nm, relative to 1% Triton X-100", "procedure": "This study was approved by the Institutional Review Board of Dongguk University (No.: DGU IRB 20200007-01). RBCs were prepared from human blood obtained from the Korean Red Cross by centrifugation at 2000 rpm for 30 min at 10 °C, followed by pellet collection. RBC pellets were washed by resuspending in phosphate-buffered saline (PBS) and centrifugation at 2000 rpm for 30 min at 10 °C thrice. Subsequently, RBCs were resuspended in PBS and 50 μL/well of RBC solution was loaded into a 96-well plate. […] Finally, the absorbance of the supernatant was measured at 405 nm using an Epoch ELISA Reader. […] All the absorbance values were normalized to those of PBS."}}}
{"compound": "N.N.[Cl][Pt][Cl]", "note": "[cisplatin]", "values": [{"measurement": "body weight", "setting": "A549-xenografted tumors", "value": "significant body weight loss"}, {"measurement": "tumor growth", "setting": "A549-xenografted tumors; twice in the first week, start at about 400 mm^3", "value": "effectively suppressed"}]}
{"compound": "CC[C@H](C)[C@H](NC(=O)CN)C(=O)NCC(=O)N[C@@H](C)C(=O)N[C@H](C(=O)N[C@@H](CC(C)C)C(=O)N[C@@H](CCCCN)C(=O)N[C@H](C(=O)N[C@@H](CC(C)C)C(=O)N[C@H](C(=O)N[C@H](C(=O)NCC(=O)N[C@@H](CC(C)C)C(=O)N1CCC[C@H]1C(=O)N[C@@H](C)C(=O)N[C@@H](CC(C)C)C(=O)N[C@H](C(=O)N[C@@H](CO)C(=O)N[C@@H](Cc1c[nH]c2ccccc12)C(=O)N[C@H](C(=O)N[C@@H](CCCCN)C(=O)N[C@@H](CCCNC(=N)N)C(=O)N[C@@H](CCCCN)C(=O)N[C@@H](CCCNC(=N)N)C(=O)N[C@@H](CCC(N)=O)C(=O)N[C@@H](CCC(N)=O)C(N)=O)[C@@H](C)CC)[C@@H](C)CC)[C@@H](C)O)[C@@H](C)O)C(C)C)C(C)C", "note": "[melittin]", "values": [{"measurement": "concentration showing cytotoxicity", "setting": "Caco-2 cells", "value": "≥ 8", "unit": "µg/mL"}, {"measurement": "concentration showing cytotoxicity", "setting": "HaCaT cells", "value": "≥ 8", "unit": "µg/mL"}, {"measurement": "cytotoxicity in cancer and normal cells", "setting": "cancer and normal cells", "value": "high cytotoxicity"}, {"measurement": "concentration showing hemolytic activity", "setting": "[1]", "value": "exceeding 8 μg/mL"}]}
